Measurements as given in US20230365592A1 (Agios Pharmaceuticals, Inc., priority 2022, published 2023).

target: T1, human PAH with the R408W mutation (Homo sapiens, UniProt P00439, R408W); assay: Cell Based Phenylalanine Flux Assay; conditions: A375 cells expressing human R408W PAH; 24 hrs compound incubation; 13C-Tyrosine by LC-MS; average where tested multiple times; read-out: AC50;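 also: after compound treatment, cells received sepiapterin plus isotope-labelled Phenylalanine for 4 hours, then labelled Tyrosine in the medium was quantified, 10-point 2-fold dilution series run in duplicate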
T1 construct: expressed in transfected cells
T1 sequence (P00439 1-452 R408W): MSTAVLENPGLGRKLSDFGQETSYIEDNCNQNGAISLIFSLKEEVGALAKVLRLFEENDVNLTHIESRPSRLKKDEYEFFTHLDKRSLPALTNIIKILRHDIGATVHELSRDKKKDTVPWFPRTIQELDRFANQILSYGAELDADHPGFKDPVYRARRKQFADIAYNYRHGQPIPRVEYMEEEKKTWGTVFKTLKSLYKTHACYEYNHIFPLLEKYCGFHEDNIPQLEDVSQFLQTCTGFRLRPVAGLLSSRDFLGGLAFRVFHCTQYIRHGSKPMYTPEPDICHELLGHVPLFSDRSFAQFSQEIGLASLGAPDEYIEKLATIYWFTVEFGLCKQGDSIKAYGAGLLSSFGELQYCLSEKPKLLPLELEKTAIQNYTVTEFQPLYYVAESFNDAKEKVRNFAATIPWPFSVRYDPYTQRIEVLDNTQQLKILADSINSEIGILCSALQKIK

SMILES	AC50
Cc1nc(C(C)(C)O)oc1C(=O)N1CCc2[nH]cnc2[C@H]1c1cc2c(F)cccn2n1 [Example 1000, (S)-(4-(4-fluoropyrazolo[1,5-a]pyridin-2-yl)-6,7-dihydro-1H-imidazo[4,5-c]pyridin-5(4H)-yl)(2-(2-hydroxypropan-2-yl)-4-methyloxazol-5-yl)methanone]	0.5 to 1 µM
O=C(c1ocnc1C(F)F)N1CCc2[nH]cnc2[C@@H]1c1cc2c(C(F)(F)F)cccn2n1 [Example 1003, (R)-(4-(difluoromethyl)oxazol-5-yl)(4-(4-(trifluoromethyl)pyrazolo[1,5-a]pyridin-2-yl)-6,7-dihydro-1H-imidazo[4,5-c]pyridin-5(4H)-yl)methanone]	0.5 to 1 µM
Cc1ccn2nc([C@H]3c4nc[nH]c4CCN3C(=O)c3ocnc3C(F)F)cc2c1 [Example 1005, (R)-(4-(difluoromethyl)oxazol-5-yl)(4-(5-methylpyrazolo[1,5-a]pyridin-2-yl)-6,7-dihydro-1H-imidazo[4,5-c]pyridin-5(4H)-yl)methanone]	< 0.5 µM
O=C(c1oc(-c2ccccn2)nc1C(F)F)N1CCc2[nH]cnc2[C@@H]1c1cc2c(F)cccn2n1 [Example 1007, (R)-(4-(difluoromethyl)-2-(pyridin-2-yl)oxazol-5-yl)(4-(4-fluoropyrazolo[1,5-a]pyridin-2-yl)-6,7-dihydro-1H-imidazo[4,5-c]pyridin-5(4H)-yl)methanone]	0.5 to 1 µM
Cc1cccn2nc([C@H]3c4nc[nH]c4CCN3C(=O)c3oc(-c4cnn(C)c4)nc3C(F)F)cc12 [Example 1009, (R)-(4-(difluoromethyl)-2-(1-methyl-1H-pyrazol-4-yl)oxazol-5-yl)(4-(4-methylpyrazolo[1,5-a]pyridin-2-yl)-6,7-dihydro-1H-imidazo[4,5-c]pyridin-5(4H)-yl)methanone]	0.5 to 1 µM
Cc1nnc(C(=O)N2CCc3[nH]cnc3[C@H]2c2cc3c(C)cccn3n2)o1 [Example 1010, (S)-(5-methyl-1,3,4-oxadiazol-2-yl)(4-(4-methylpyrazolo[1,5-a]pyridin-2-yl)-6,7-dihydro-1H-imidazo[4,5-c)pyridin-5(4H)-yl)methanone]	0.5 to 1 µM
Cc1cccn2nc([C@@H]3c4nc[nH]c4CCN3C(=O)c3nnc(N4CCC(F)CC4)o3)cc12 [Example 1012, (S)-(5-(4-fluoropiperidin-1-yl)-1,3,4-oxadiazol-2-yl)(4-(4-methylpyrazolo[1,5-a]pyridin-2-yl)-6,7-dihydro-1H-imidazo[4,5-c]pyridin-5(4H)-yl)methanone]	0.5 to 1 µM
Cc1cccn2nc([C@H]3c4nc[nH]c4CCN3C(=O)c3nnc(N4CCC(F)CC4)o3)cc12 [Example 1013, (R)-(5-(4-fluoropiperidin-1-yl)-1,3,4-oxadiazol-2-yl)(4-(4-methylpyrazolo[1,5-a]pyridin-2-yl)-6,7-dihydro-1H-imidazo[4,5-c]pyridin-5(4H)-yl)methanone]	> 5 µM
O=C(c1nnc(N2CCC(F)CC2)o1)N1CCc2[nH]cnc2[C@H]1c1cc2c(F)cccn2n1 [Example 1014, (S)-(5-(4-fluoropiperidin-1-yl)-1,3,4-oxadiazol-2-yl)(4-(4-fluoropyrazolo[1,5-a]pyridin-2-yl)-6,7-dihydro-1H-imidazo[4,5-c]pyridin-5(4H)-yl)methanone]	< 0.5 µM
O=C(c1nnc(N2CCC(F)CC2)o1)N1CCc2[nH]cnc2[C@@H]1c1cc2c(F)cccn2n1 [Example 1015, (R)-(5-(4-fluoropiperidin-1-yl)-1,3,4-oxadiazol-2-yl)(4-(4-fluoropyrazolo[1,5-a]pyridin-2-yl)-6,7-dihydro-1H-imidazo[4,5-c]pyridin-5(4H)-yl)methanone]	> 5 µM
Cc1cccn2nc([C@@H]3c4nc[nH]c4CCN3C(=O)c3nnc(-c4ccnn4C)o3)cc12 [Example 1016, (S)-(5-(1-methyl-1H-pyrazol-5-yl)-1,3,4-oxadiazol-2-yl)(4-(4-methylpyrazolo[1,5-a]pyridin-2-yl)-6,7-dihydro-1H-imidazo[4,5-c]pyridin-5(4H)-yl)methanone]	< 0.5 µM

Continued, values first:

AC50	SMILES
> 5 µM	Cc1cccn2nc([C@H]3c4nc[nH]c4CCN3C(=O)c3nnc(-c4ccnn4C)o3)cc12 [Example 1017, (R)-(5-(1-methyl-1H-pyrazol-5-yl)-1,3,4-oxadiazol-2-yl)(4-(4-methylpyrazolo[1,5-a]pyridin-2-yl)-6,7-dihydro-1H-imidazo[4,5-c]pyridin-5(4H)-yl)methanone]
< 0.5 µM	Cn1nccc1-c1nnc(C(=O)N2CCc3[nH]cnc3[C@H]2c2cc3c(F)cccn3n2)o1 [Example 1018, (S)-(4-(4-fluoropyrazolo[1,5-a]pyridin-2-yl)-6,7-dihydro-1H-imidazo[4,5-c]pyridin-5(4H)-yl)(5-(1methyl-1H-pyrazol-5-yl)-1,3,4-oxadiazol-2-yl)methanone]
> 5 µM	Cn1nccc1-c1nnc(C(=O)N2CCc3[nH]cnc3[C@@H]2c2cc3c(F)cccn3n2)o1 [Example 1019, (R)-(4-(4-fluoropyrazolo[1,5-a]pyridin-2-yl)-6,7-dihydro-1H-imidazo[4,5-c]pyridin-5(4H)-yl)(5-(1-methyl-1H-pyrazol-5-yl)-1,3,4-oxadiazol-2-yl)methanone]
< 0.5 µM	Cc1cccc2cc([C@@H]3c4nc[nH]c4CCN3C(=O)c3nnc(C(C)(C)C)o3)nn12 [Example 1020, (S)-(5-(tert-butyl)-1,3,4-oxadiazol-2-yl)(4-(7-methylpyrazolo[1,5-a]pyridin-2-yl)-6,7-dihydro-1H-imidazo[4,5-c]pyridin-5(4H)-yl)methanone]
1 to 5 µM	Cc1cccc2cc([C@H]3c4nc[nH]c4CCN3C(=O)c3nnc(C(C)(C)C)o3)nn12 [Example 1021, (R)-(5-(tert-butyl)-1,3,4-oxadiazol-2-yl)(4-(7-methylpyrazolo[1,5-a]pyridin-2-yl)-6,7-dihydro-1H-imidazo[4,5-c]pyridin-5(4H)-yl)methanone]
< 0.5 µM	CC(C)(F)c1nnc(C(=O)N2CCc3[nH]cnc3[C@H]2c2cc3c(F)cccn3n2)o1 [Example 1024, (S)-(5-(2-fluoropropan-2-yl)-1,3,4-oxadiazol-2-yl)(4-(4-fluoropyrazolo[1,5-a]pyridin-2-yl)-6,7-dihydro-1H-imidazo[4,5-c]pyridin-5(4H)-yl)methanone]
1 to 5 µM	CC(C)(F)c1nnc(C(=O)N2CCc3[nH]cnc3[C@@H]2c2cc3c(F)cccn3n2)o1 [Example 1025, (R)-(5-(2-fluoropropan-2-yl)-1,3,4-oxadiazol-2-yl)(4-(4-fluoropyrazolo[1,5-a]pyridin-2-yl)-6,7-dihydro-1H-imidazo[4,5-c]pyridin-5(4H)-yl)methanone]
1 to 5 µM	CC(C)(C)c1nnc(C(=O)N2CCc3[nH]cnc3[C@@H]2c2cc3c(F)cccn3n2)o1 [Example 1026, (R)-(5-(tert-butyl)-1,3,4-oxadiazol-2-yl)(4-(4-fluoropyrazolo[1,5-a]pyridin-2-yl)-6,7-dihydro-1H-imidazo[4,5-c]pyridin-5(4H)-yl)methanone]
< 0.5 µM	CC(C)(C)c1nnc(C(=O)N2CCc3[nH]cnc3[C@H]2c2cc3c(F)cccn3n2)o1 [Example 1027, (S)-(5-(tert-butyl)-1,3,4-oxadiazol-2-yl)(4-(4-fluoropyrazolo[1,5-a]pyridin-2-yl)-6,7-dihydro-1H-imidazo[4,5-c]pyridin-5(4H)-yl)methanone]
< 0.5 µM	O=C(c1nnc(-c2ccccn2)o1)N1CCc2[nH]cnc2[C@H]1c1cc2cccc(C(F)(F)F)n2n1 [Example 1028, (S)-(5-(pyridin-2-yl)-1,3,4-oxadiazol-2-yl)(4-(7-(trifluoromethyl)pyrazolo[1,5-a]pyridin-2-yl)-6,7-dihydro-1H-imidazo[4,5-c]pyridin-5(4H)-yl)methanone]
1 to 5 µM	O=C(c1nnc(-c2ccccn2)o1)N1CCc2[nH]cnc2[C@@H]1c1cc2cccc(C(F)(F)F)n2n1 [Example 1029, (R)-(5-(pyridin-2-yl)-1,3,4-oxadiazol-2-yl)(4-(7-(trifluoromethyl)pyrazolo[1,5-a]pyridin-2-yl)-6,7-dihydro-1H-imidazo[4,5-c]pyridin-5(4H)-yl)methanone]
< 0.5 µM	Cn1ccc(-c2nnc(C(=O)N3CCc4[nH]cnc4[C@H]3c3cc4cccc(C(F)(F)F)n4n3)o2)n1 [Example 1030, (S)-(5-(1-methyl-1H-pyrazol-3-yl)-1,3,4-oxadiazol-2-yl)(4-(7-(trifluoromethyl)pyrazolo[1,5-a]pyridin-2-yl)-6,7-dihydro-1H-imidazo[4,5-c]pyridin-5(4H)-yl)methanone]
0.5 to 1 µM	Cn1cnc(-c2nnc(C(=O)N3CCc4[nH]cnc4[C@H]3c3cc4cccc(C(F)(F)F)n4n3)o2)c1 [Example 1032, (S)-(5-(1-methyl-1H-imidazol-4-yl)-1,3,4-oxadiazol-2-yl)(4-(7-(trifluoromethyl)pyrazolo[1,5-a]pyridin-2-yl)-6,7-dihydro-1H-imidazo(4,5-c]pyridin-5(4H)-yl)methanone]
1 to 5 µM	Cn1cnc(-c2nnc(C(=O)N3CCc4[nH]cnc4[C@@H]3c3cc4cccc(C(F)(F)F)n4n3)o2)c1 [Example 1033, (R)-(5-(1-methyl-1H-imidazol-4-yl)-1,3,4-oxadiazol-2-yl)(4-(7-(trifluoromethyl)pyrazolo[1,5-a]pyridin-2-yl)-6,7-dihydro-1H-imidazo[4,5-c]pyridin-5(4H)-yl)methanone]
0.5 to 1 µM	O=C(c1nnc(-c2ncccc2F)o1)N1CCc2[nH]cnc2[C@H]1c1cc2cccc(C(F)(F)F)n2n1 [Example 1034, (S)-(5-(3-fluoropyridin-2-yl)-1,3,4-oxadiazol-2-yl)(4-(7-(trifluoromethyl)pyrazolo[1,5-a]pyridin-2-yl)-6,7-dihydro-1H-imidazo[4,5-c]pyridin-5(4H)-yl)methanone]
